Experimental data as given in patent publication US20230406885A1, “CYCLIC PEPTIDES FOR TRAPPING INTERLEUKIN-1 BETA” (MERCK SHARP & DOHME LLC, priority 2022, published 2023).
*1 amine or outer side, *2 acyl side, *3 side chain or, on linkers, in order; H or OH if unused. Where a SMILES comes first, the peptide text is derived from it. [ ]: non-standard residue; d: D form. Trp(4-Cl)(βS-Me) = C[C@@H](c1c[nH]c2cccc(Cl)c12)[C@H](N)C(=O)O; Trp(βS-Me,4-F) = C[C@@H](c1c[nH]c2cccc(F)c12)[C@H](N)C(=O)O; Bip(4'-COOH) = N[C@@H](Cc1ccc(-c2ccc(C(=O)O)cc2)cc1)C(=O)O; Phe(3-CH2NH2) = O=C([C@H](Cc1cccc(CN[*:3])c1)N[*:1])[*:2]; Phe(4-COOH) = N[C@@H](Cc1ccc(C(=O)O)cc1)C(=O)O; Phe(4-CH2NH2) = NCc1ccc(C[C@H](N)C(=O)O)cc1; Phe(3-NH2) = Nc1cccc(C[C@H](N)C(=O)O)c1; Phe(4-NH2) = Nc1ccc(C[C@H](N)C(=O)O)cc1; Pro(4R-NH2) = N[C@H]1CN[C@H](C(=O)O)C1; hTyr = N[C@@H](CCc1ccc(O)cc1)C(=O)O; 4Pal = N[C@@H](Cc1ccncc1)C(=O)O; dDab = NCC[C@@H](N)C(=O)O; Orn = NCCC[C@H](N)C(=O)O; dNMeA = CN[C@H](C)C(=O)O; Dap = NC[C@H](N)C(=O)O

molecular target: T1, Recombinant human IL-1β (Homo sapiens, UniProt P01584); experiment: IL-6 assay in MRC5 cells: inhibition of IL-1β induced IL-6 secretion (AlphaLISA); format: cell-based; details: inhibition of IL-1β induced IL-6 secretion in MRC5 cells; IL-1β pre-incubated 1 hour with compound; read-out: MRC5 IC50
T1 construct: purchased BioLegend 579404
Procedure, shortened: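 IL-1β at 2×EC80 in seeding medium (EMEM, 0.025% BSA) preincubated 1 h at ambient temperature with compound, then 3000 MRC5 cells/well added and incubated overnight at 37 °C, 5% CO2. IL-6 in conditioned medium quantified by AlphaLISA; IC50 from 4-parameter logistic fit.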

T1 sequence (P01584 117-269): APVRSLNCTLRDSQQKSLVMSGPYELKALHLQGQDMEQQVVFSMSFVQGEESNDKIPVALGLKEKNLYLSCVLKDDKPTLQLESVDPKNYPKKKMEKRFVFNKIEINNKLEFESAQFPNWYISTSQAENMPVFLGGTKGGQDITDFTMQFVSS

Row | IC50 | Compound
1 | 0.123 nM | C[C@@H]1C(=O)NCC(=O)N[C@@H](Cc2ccc(-c3ccc(C(=O)O)cc3)cc2)C(=O)N[C@@H](CCCCN)C(=O)N[C@@H](CO)C(=O)N[C@H](CO)C(=O)N[C@@H](CCc2ccc(O)cc2)C(=O)N[C@@H](Cc2ccc(-c3ccc(C(=O)O)cc3)cc2)C(=O)N[C@@H](Cc2c[nH]c3ccccc23)C(=O)N[C@@H](Cc2ccc(C(=O)O)cc2)C(=O)NCC(=O)N2C[C@H](N)C[C@H]2C(=O)N[C@@H]([C@@H](C)c2c[nH]c3cccc(Cl)c23)C(=O)N[C@@H](CC(=O)O)C(=O)N1C [Example 47] (cyclo([Bip(4'-COOH)]W[Phe(4-COOH)]G[Pro(4R-NH2)][Trp(4-Cl)(βS-Me)]D[dNMeA]G[Bip(4'-COOH)]KS[dS][hTyr]))
2 | 0.041 nM | C[C@@H]1C(=O)NCC(=O)N[C@@H](Cc2ccc(-c3ccc(C(=O)O)cc3)cc2)C(=O)N[C@@H](Cc2cccc(CN)c2)C(=O)N[C@@H](CO)C(=O)N[C@H](C)C(=O)N[C@@H](CCc2ccc(O)cc2)C(=O)N[C@@H](Cc2ccc(-c3ccc(C(=O)O)cc3)cc2)C(=O)N[C@@H](Cc2c[nH]c3ccccc23)C(=O)N[C@@H](Cc2ccc(C(=O)O)cc2)C(=O)NCC(=O)N2C[C@H](N)C[C@H]2C(=O)N[C@@H]([C@@H](C)c2c[nH]c3cccc(Cl)c23)C(=O)N[C@@H](CC(=O)O)C(=O)N1C [Example 48] (cyclo([Bip(4'-COOH)]W[Phe(4-COOH)]G[Pro(4R-NH2)][Trp(4-Cl)(βS-Me)]D[dNMeA]G[Bip(4'-COOH)][Phe(3-CH2NH2)]S[dA][hTyr]))
3 | 0.402 nM | C[C@@H]1C(=O)NCC(=O)N[C@@H](Cc2ccc(-c3ccc(C(=O)O)cc3)cc2)C(=O)N[C@@H](CCCN)C(=O)N[C@@H](CO)C(=O)N[C@H](C)C(=O)N[C@@H](CCc2ccc(O)cc2)C(=O)N[C@@H](Cc2ccc(-c3ccc(C(=O)O)cc3)cc2)C(=O)N[C@@H](Cc2c[nH]c3ccccc23)C(=O)N[C@@H](Cc2ccc(C(=O)O)cc2)C(=O)NCC(=O)N2C[C@H](N)C[C@H]2C(=O)N[C@@H]([C@@H](C)c2c[nH]c3cccc(Cl)c23)C(=O)N[C@@H](CC(=O)O)C(=O)N1C [Example 49] (cyclo([Bip(4'-COOH)]W[Phe(4-COOH)]G[Pro(4R-NH2)][Trp(4-Cl)(βS-Me)]D[dNMeA]G[Bip(4'-COOH)][Orn]S[dA][hTyr]))
4 | 0.52 nM | C[C@@H]1C(=O)NCC(=O)N[C@@H](Cc2ccc(-c3ccc(C(=O)O)cc3)cc2)C(=O)N[C@@H](Cc2cccc(N)c2)C(=O)N[C@@H](CO)C(=O)N[C@H](C)C(=O)N[C@@H](CCc2ccc(O)cc2)C(=O)N[C@@H](Cc2ccc(-c3ccc(C(=O)O)cc3)cc2)C(=O)N[C@@H](Cc2c[nH]c3ccccc23)C(=O)N[C@@H](Cc2ccc(C(=O)O)cc2)C(=O)NCC(=O)N2C[C@H](N)C[C@H]2C(=O)N[C@@H]([C@@H](C)c2c[nH]c3cccc(Cl)c23)C(=O)N[C@@H](CC(=O)O)C(=O)N1C [Example 50] (cyclo([Bip(4'-COOH)]W[Phe(4-COOH)]G[Pro(4R-NH2)][Trp(4-Cl)(βS-Me)]D[dNMeA]G[Bip(4'-COOH)][Phe(3-NH2)]S[dA][hTyr]))
5 | 0.32 nM | C[C@@H]1C(=O)NCC(=O)N[C@@H](Cc2ccc(-c3ccc(C(=O)O)cc3)cc2)C(=O)N[C@@H](Cc2ccc(CN)cc2)C(=O)N[C@@H](CO)C(=O)N[C@H](C)C(=O)N[C@@H](CCc2ccc(O)cc2)C(=O)N[C@@H](Cc2ccc(-c3ccc(C(=O)O)cc3)cc2)C(=O)N[C@@H](Cc2c[nH]c3ccccc23)C(=O)N[C@@H](Cc2ccc(C(=O)O)cc2)C(=O)NCC(=O)N2C[C@H](N)C[C@H]2C(=O)N[C@@H]([C@@H](C)c2c[nH]c3cccc(Cl)c23)C(=O)N[C@@H](CC(=O)O)C(=O)N1C [Example 51] (cyclo([Bip(4'-COOH)]W[Phe(4-COOH)]G[Pro(4R-NH2)][Trp(4-Cl)(βS-Me)]D[dNMeA]G[Bip(4'-COOH)][Phe(4-CH2NH2)]S[dA][hTyr]))
6 | 0.454 nM | C[C@@H]1C(=O)NCC(=O)N[C@@H](Cc2ccc(-c3ccc(C(=O)O)cc3)cc2)C(=O)N[C@@H](Cc2ccc(N)cc2)C(=O)N[C@@H](CO)C(=O)N[C@H](C)C(=O)N[C@@H](CCc2ccc(O)cc2)C(=O)N[C@@H](Cc2ccc(-c3ccc(C(=O)O)cc3)cc2)C(=O)N[C@@H](Cc2c[nH]c3ccccc23)C(=O)N[C@@H](Cc2ccc(C(=O)O)cc2)C(=O)NCC(=O)N2C[C@H](N)C[C@H]2C(=O)N[C@@H]([C@@H](C)c2c[nH]c3cccc(Cl)c23)C(=O)N[C@@H](CC(=O)O)C(=O)N1C [Example 52] (cyclo([Bip(4'-COOH)]W[Phe(4-COOH)]G[Pro(4R-NH2)][Trp(4-Cl)(βS-Me)]D[dNMeA]G[Bip(4'-COOH)][Phe(4-NH2)]S[dA][hTyr]))
7 | 0.0418 nM | C[C@@H]1C(=O)NCC(=O)N[C@@H](Cc2ccc(-c3ccc(C(=O)O)cc3)cc2)C(=O)N[C@@H](Cc2c[nH]c3ccccc23)C(=O)N[C@@H](CN)C(=O)N[C@H](C)C(=O)N[C@@H](CCc2ccc(O)cc2)C(=O)N[C@@H](Cc2ccc(-c3ccc(C(=O)O)cc3)cc2)C(=O)N[C@@H](Cc2c[nH]c3ccccc23)C(=O)N[C@@H](Cc2ccc(C(=O)O)cc2)C(=O)NCC(=O)N2C[C@H](N)C[C@H]2C(=O)N[C@@H]([C@@H](C)c2c[nH]c3cccc(Cl)c23)C(=O)N[C@@H](CC(=O)O)C(=O)N1C [Example 53] (cyclo([Bip(4'-COOH)]W[Phe(4-COOH)]G[Pro(4R-NH2)][Trp(4-Cl)(βS-Me)]D[dNMeA]G[Bip(4'-COOH)]W[Dap][dA][hTyr]))
8 | 0.0692 nM | C[C@@H]1C(=O)NCC(=O)N[C@@H](Cc2ccc(-c3ccc(C(=O)O)cc3)cc2)C(=O)N[C@@H](Cc2c[nH]c3ccccc23)C(=O)NCC(=O)N[C@H](CCN)C(=O)N[C@@H](CCc2ccc(O)cc2)C(=O)N[C@@H](Cc2ccc(-c3ccc(C(=O)O)cc3)cc2)C(=O)N[C@@H](Cc2c[nH]c3ccccc23)C(=O)N[C@@H](Cc2ccc(C(=O)O)cc2)C(=O)NCC(=O)N2C[C@H](N)C[C@H]2C(=O)N[C@@H]([C@@H](C)c2c[nH]c3cccc(Cl)c23)C(=O)N[C@@H](CC(=O)O)C(=O)N1C [Example 54] (cyclo([Bip(4'-COOH)]W[Phe(4-COOH)]G[Pro(4R-NH2)][Trp(4-Cl)(βS-Me)]D[dNMeA]G[Bip(4'-COOH)]WG[dDab][hTyr]))
9 | 0.0493 nM | C[C@@H]1C(=O)NCC(=O)N[C@@H](Cc2ccc(-c3ccc(C(=O)O)cc3)cc2)C(=O)N[C@@H](Cc2c[nH]c3ccccc23)C(=O)NCC(=O)N[C@H](CCN)C(=O)N[C@@H](CCc2ccc(O)cc2)C(=O)N[C@@H](Cc2ccc(-c3ccc(C(=O)O)cc3)cc2)C(=O)N[C@@H](Cc2c[nH]c3ccccc23)C(=O)N[C@@H](Cc2ccc(C(=O)O)cc2)C(=O)NCC(=O)N2C[C@H](N)C[C@H]2C(=O)N[C@@H]([C@@H](C)c2c[nH]c3cccc(Cl)c23)C(=O)N[C@@H](CCC(=O)O)C(=O)N1C [Example 55] (cyclo([Bip(4'-COOH)]W[Phe(4-COOH)]G[Pro(4R-NH2)][Trp(4-Cl)(βS-Me)]E[dNMeA]G[Bip(4'-COOH)]WG[dDab][hTyr]))
10 | 0.0207 nM | C[C@@H]1C(=O)NCC(=O)N[C@@H](Cc2ccc(-c3ccc(C(=O)O)cc3)cc2)C(=O)N[C@@H](Cc2c[nH]c3ccccc23)C(=O)NCC(=O)N[C@H](CCN)C(=O)N[C@@H](CCc2ccc(O)cc2)C(=O)N[C@@H](Cc2ccc(-c3ccc(C(=O)O)cc3)cc2)C(=O)N[C@@H](Cc2c[nH]c3ccccc23)C(=O)N[C@@H](Cc2ccc(C(=O)O)cc2)C(=O)NCC(=O)N2C[C@H](N)C[C@H]2C(=O)N[C@@H]([C@@H](C)c2c[nH]c3cccc(Cl)c23)C(=O)N[C@@H](CC(N)=O)C(=O)N1C [Example 56] (cyclo([Bip(4'-COOH)]W[Phe(4-COOH)]G[Pro(4R-NH2)][Trp(4-Cl)(βS-Me)]N[dNMeA]G[Bip(4'-COOH)]WG[dDab][hTyr]))
11 | 0.0873 nM | C[C@@H]1C(=O)NCC(=O)N[C@@H](Cc2ccc(-c3ccc(C(=O)O)cc3)cc2)C(=O)N[C@@H](Cc2c[nH]c3ccccc23)C(=O)NCC(=O)N[C@H](CCN)C(=O)N[C@@H](CCc2ccc(O)cc2)C(=O)N[C@@H](Cc2ccc(-c3ccc(C(=O)O)cc3)cc2)C(=O)N[C@@H](Cc2c[nH]c3ccccc23)C(=O)N[C@@H](Cc2ccc(C(=O)O)cc2)C(=O)NCC(=O)N2C[C@H](N)C[C@H]2C(=O)N[C@@H]([C@@H](C)c2c[nH]c3cccc(Cl)c23)C(=O)N[C@@H](CCC(N)=O)C(=O)N1C [Example 57] (cyclo([Bip(4'-COOH)]W[Phe(4-COOH)]G[Pro(4R-NH2)][Trp(4-Cl)(βS-Me)]Q[dNMeA]G[Bip(4'-COOH)]WG[dDab][hTyr]))
12 | 0.247 nM | CC(C)C[C@@H]1NC(=O)[C@H](CCCCN)NC(=O)[C@H](Cc2ccc(-c3ccc(C(=O)O)cc3)cc2)NC(=O)CNC(=O)[C@@H](C)N(C)C(=O)[C@H](C)NC(=O)[C@H]([C@@H](C)c2c[nH]c3cccc(F)c23)NC(=O)[C@@H]2C[C@@H](N)CN2C(=O)CNC(=O)[C@H](Cc2ccc(C(=O)O)cc2)NC(=O)[C@H](Cc2c[nH]c3ccccc23)NC(=O)[C@H](Cc2ccc(-c3ccc(C(=O)O)cc3)cc2)NC(=O)[C@H](CCc2ccc(O)cc2)NC(=O)[C@@H](C)NC1=O [Example 58] (cyclo([Bip(4'-COOH)]W[Phe(4-COOH)]G[Pro(4R-NH2)][Trp(βS-Me,4-F)]A[dNMeA]G[Bip(4'-COOH)]KL[dA][hTyr]))
13 | 0.0362 nM | CC(C)C[C@@H]1NC(=O)[C@H](Cc2ccncc2)NC(=O)[C@H](Cc2ccc(-c3ccc(C(=O)O)cc3)cc2)NC(=O)CNC(=O)[C@@H](C)N(C)C(=O)[C@H](CC(=O)O)NC(=O)[C@H]([C@@H](C)c2c[nH]c3cccc(F)c23)NC(=O)[C@@H]2C[C@@H](N)CN2C(=O)CNC(=O)[C@H](Cc2ccc(C(=O)O)cc2)NC(=O)[C@H](Cc2c[nH]c3ccccc23)NC(=O)[C@H](Cc2ccc(-c3ccc(C(=O)O)cc3)cc2)NC(=O)[C@H](CCc2ccc(O)cc2)NC(=O)[C@@H](C)NC1=O [Example 59] (cyclo([Bip(4'-COOH)]W[Phe(4-COOH)]G[Pro(4R-NH2)][Trp(βS-Me,4-F)]D[dNMeA]G[Bip(4'-COOH)][4Pal]L[dA][hTyr]))
